Measurements as given in article PMC5726399 (Neuropharmacology, 2017).
“Also recorded” adds a separate entry of the source. Where a name gives a salt, the structure may show the parent alone. Read-outs that look alike come from different tables or passages of the source. Where no end group is shown, it is not given here.

Tests used:
NMDA receptors [1] = settings: ref Chen et al., 2010, cited from earlier work; for effect on NMDA-induced substance P release: Marvizon et al., 1997
NMDA receptors [2] = assay: NMDA-induced NK1R internalization in spinal cord slices; set-up: species or system rat; settings: 10 μM NMDA + 10 μM D-Ser, 2 min, 35 °C
[3] = system: substance P release / NK1R internalization in lamina I neurons; assay: In vivo NK1R internalization induced by intrathecal NMDA; set-up: species or system rat; settings: for lamina 1 neurons with NK1R internalization in example image: confocal image, one rat per group, L4
[4] = system: NMDA receptors in DRG neurons; assay type: cell-based, rat
[5] = target: NMDA receptors with the NR2B subunit (Rattus norvegicus, UniProt P35439+Q00960); settings: % NK1R internalization
NR1a/NR2B NMDA receptors = settings: Xenopus oocytes; ref Williams, 1993; cited from earlier work
rat brain membranes = settings: ref Grimwood et al., 2000; cited from earlier work
[6] = system: NMDA receptor-induced substance P release; assay: NMDA-induced NK1R internalization in slices preincubated with BVT948; set-up: species or system rat; settings: 10 μM BVT948, 60 min preincubation
protein kinase A (PKA) = assay: PKA inhibition: NMDA-induced NK1R internalization in slices; set-up: species or system rat; settings: 10 μM, 60 min
TRPV1 channels [7] = settings: cited from earlier work
GIRK channels = system: GIRK channels; set-up: species or system rat
adenylyl cyclase (AC) = assay: AC inhibition: NMDA-induced NK1R internalization in slices; set-up: species or system rat; settings: SQ22536 10 μM, 60 min
[8] = system: CTX-insensitive component of NMDA-induced substance P release; assay: CTX-insensitive component of NMDA-induced substance P release in slices; set-up: species or system rat; settings: 1 μM DAMGO, 100 μM SQ22536 or 10 μM KT5720, 60 min; for additional inhibition in presence of CTX GVIA: 1 μM CTX GVIA; for additional inhibition in presence of CTX MVIIC: 1 μM CTX MVIIC
protein kinase C (PKC) = assay: PKC inhibitors and activators: NMDA-induced NK1R internalization in slices; set-up: species or system rat; settings: for effect on NMDA-induced substance P release: 60 min
AC/PKA pathway = assay: NK1R internalization induced by forskolin or 8-Br-cAMP in slices; set-up: species or system rat; settings: 60 min; for NK1R internalization elicited: 10 μM forskolin or 0.5 mM 8-Br-cAMP, no NMDA
TRPV1 channels [9] = system: TRPV1 channels; set-up: species or system rat
[10] = system: NMDA receptor-induced substance P release; assay: NMDA-induced NK1R internalization in slices preincubated with BDNF; set-up: species or system rat
[11] = chelerythrine 10 μM, Ro-32-0432, TPPB 1 μM, with 10 nM DAMGO
[12] = chelerythrine 10 μM, Ro-32-0432, TPPB, PMA 1 μM

Sequence of NMDA receptors with the NR2B subunit (Q00960 27-1482, other chains not shown): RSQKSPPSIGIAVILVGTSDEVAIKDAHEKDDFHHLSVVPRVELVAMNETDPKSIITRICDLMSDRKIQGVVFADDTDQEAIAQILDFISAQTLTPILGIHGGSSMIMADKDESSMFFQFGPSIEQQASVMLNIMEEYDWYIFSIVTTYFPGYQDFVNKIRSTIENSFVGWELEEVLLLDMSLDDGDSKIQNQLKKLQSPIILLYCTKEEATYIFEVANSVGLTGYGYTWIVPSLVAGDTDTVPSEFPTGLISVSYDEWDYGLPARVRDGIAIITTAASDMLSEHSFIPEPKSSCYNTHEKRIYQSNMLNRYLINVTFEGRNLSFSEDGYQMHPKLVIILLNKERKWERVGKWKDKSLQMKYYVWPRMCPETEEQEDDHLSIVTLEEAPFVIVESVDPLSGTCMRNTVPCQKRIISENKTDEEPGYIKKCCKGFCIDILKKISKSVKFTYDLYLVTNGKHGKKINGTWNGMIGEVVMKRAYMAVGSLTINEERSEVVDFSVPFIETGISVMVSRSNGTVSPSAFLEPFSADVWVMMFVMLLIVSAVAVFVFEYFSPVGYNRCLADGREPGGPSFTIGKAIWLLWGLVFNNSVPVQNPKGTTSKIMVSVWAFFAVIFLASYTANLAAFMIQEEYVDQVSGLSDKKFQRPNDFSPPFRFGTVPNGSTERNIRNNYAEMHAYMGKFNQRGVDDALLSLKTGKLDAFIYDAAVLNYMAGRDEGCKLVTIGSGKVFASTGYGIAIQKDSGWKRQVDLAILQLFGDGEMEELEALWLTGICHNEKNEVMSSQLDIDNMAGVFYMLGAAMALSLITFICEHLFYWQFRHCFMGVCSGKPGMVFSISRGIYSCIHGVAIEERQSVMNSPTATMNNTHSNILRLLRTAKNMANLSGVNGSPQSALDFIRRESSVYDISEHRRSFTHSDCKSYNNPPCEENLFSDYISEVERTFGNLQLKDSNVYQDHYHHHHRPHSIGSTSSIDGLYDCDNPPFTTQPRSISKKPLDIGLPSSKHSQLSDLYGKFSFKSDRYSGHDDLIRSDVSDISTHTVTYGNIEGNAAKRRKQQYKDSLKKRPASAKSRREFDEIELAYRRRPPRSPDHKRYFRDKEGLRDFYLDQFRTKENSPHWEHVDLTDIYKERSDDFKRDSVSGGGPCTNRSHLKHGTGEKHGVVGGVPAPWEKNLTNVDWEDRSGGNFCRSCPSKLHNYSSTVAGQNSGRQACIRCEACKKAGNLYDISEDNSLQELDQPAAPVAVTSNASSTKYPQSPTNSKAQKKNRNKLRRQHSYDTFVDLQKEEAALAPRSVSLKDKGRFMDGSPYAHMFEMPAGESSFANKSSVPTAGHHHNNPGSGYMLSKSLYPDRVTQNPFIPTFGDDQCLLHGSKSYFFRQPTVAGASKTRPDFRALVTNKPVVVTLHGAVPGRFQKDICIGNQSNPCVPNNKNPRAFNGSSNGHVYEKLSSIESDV

CCN(CC)CC(=O)Nc1c(C)cccc1C [lidocaine]
effect on NMDA-induced substance P release (action potential block) (NMDA receptors [1]): not affected

CN[C@H](CC(=O)O)C(=O)O [NMDA, N-methyl-D-aspartate]
NK1R internalization induced (lamina I NK1R neurons) (NMDA receptors [2]): about 50%
lamina 1 neurons with NK1R internalization in example image [3]: there was no NK1R internalization
[Ca2+]i increase [4]: increases in some of the neurons

CC(C(O)c1ccc(O)cc1)N1CCC(Cc2ccccc2)CC1 (centres unmarked) [ifenprodil]
top [5]: 62 ± 3%
bottom ([5]; basal without NMDA 12±1%): 26 ± 2%
potency to inhibit currents (NR1a/NR2B NMDA receptors): 340 nM
Kd (rat brain membranes): 25 nM

CC1(C)C(=O)N=C2C1=C(O)C(=O)c1ccccc12 [BVT948, 4-hydroxy-3,3-dimethyl-2H-benz[g]indole-2,5(3H)-dione]
effect on NMDA-induced NK1R internalization [6]: substantially increased NMDA-induced NK1R internalization

PKI 14–22: protein kinase inhibitor 14–22, PKA inhibitor (GRTGRRNAI; also: myristoylated; UniProt P61925 15-23, looked up, fragment)
effect on NMDA-induced NK1R internalization (protein kinase A (PKA)): decreased

NCC(CC(=O)O)c1ccc(Cl)cc1 (centres unmarked) [baclofen]
effect on substance P release by dorsal root or low-concentration capsaicin (TRPV1 channels [7]; capsaicin on dorsal root or low concentrations, ref Lao et al., 2003): can be inhibited
effect on substance P release by higher concentrations of capsaicin (TRPV1 channels [7]; higher capsaicin concentrations, ref Lao et al., 2003): did not inhibit substance P release

NC(CCCP(=O)(O)O)C(=O)O (centres unmarked) [2-amino-phosphopentanoic acid]
effect on NMDA-induced substance P release (NMDA receptors [1]): inhibited

tertiapin Q
effect on NMDA-induced NK1R internalization (GIRK channels): small but significant inhibition
effect on inhibition by DAMGO (GIRK channels): did not affect the inhibition by DAMGO

Nc1ncnc2c1ncn2C1CCCO1 (centres unmarked) [SQ22536, 9-(Tetrahydro-2-furanyl)-9H-purin-6-amine]
effect on NMDA-induced NK1R internalization (adenylyl cyclase (AC)): but not at 10 μM
additional inhibition in presence of CTX GVIA [8]: did not produce any further inhibition
additional inhibition in presence of CTX MVIIC [8]: did not produce any further inhibition

CC(C)[C@H]1C(=O)N[C@H](CO)Cc2cc(NC(=O)/C=C/C=C/c3ccc(C(F)(F)F)cc3)ccc2N1C [TPPB, (2E4E)-N-[(2S,5S)-1,2,3,4,5,6-Hexahydro-5-(hydroxymethyl)-1-methyl-2-(1-methylethyl)-3-oxo-1,4-benzodiazocin-8-yl]-5-[4-(trifluoromethyl)phenyl]-2,4-pentadienamide]
effect on inhibition by 10 nM DAMGO (protein kinase C (PKC)): did not affect inhibition by 10 nM DAMGO
effect on NMDA-induced substance P release (protein kinase C (PKC)): strongly increased NMDA-induced substance P release

C[C@]12N[C@H](Cc3ccccc31)c1ccccc12 [MK-801, (5S,10R)-(+)-5-Methyl-10,11-dihydro-5H-dibenzo[a, d]cyclohepten-5,10-imine maleate]
effect on forskolin-evoked substance P release (AC/PKA pathway; 10 μM MK-801 or 1 μM DAMGO with 10 μM forskolin): substantially decreased their effect on substance P release, although not to control levels
effect on 8-Br-cAMP-evoked substance P release (AC/PKA pathway; 10 μM MK-801 or 1 μM DAMGO with 0.5 mM 8-Br-cAMP): substantially decreased their effect on substance P release, although not to control levels
effect on NMDA-induced substance P release (NMDA receptors [1]): inhibited

COc1ccc2c(c[n+](C)c3c4cc5c(cc4ccc23)OCO5)c1OC [chelerythrine]
effect on inhibition by 10 nM DAMGO (protein kinase C (PKC); [11]): did not increase its inhibition by DAMGO; also recorded: showed a trend to decrease the inhibition by 10 nM DAMGO
effect on NMDA-induced substance P release (protein kinase C (PKC); [12]): did not affect NMDA-induced substance P release

CCCCCCOC(=O)[C@]1(O)C[C@@H]2O[C@@]1(C)n1c3ccccc3c3c4c(c5c6ccccc6n2c5c31)C(=O)NC4 [KT5720, (9R,10S,12S)-2,3,9,10,11,12-Hexahydro-10-hydroxy-9-methyl-1-oxo-9,12-epoxy-1H-diindolo[1,2,3-fg:3′,2′,1′-kl]pyrrolo[3,4-i][1,6]benzodiazocine-10-carboxylic acid, hexyl ester]
effect on NMDA-induced NK1R internalization (protein kinase A (PKA)): did not completely abolish NMDA-induced NK1R internalization
effect on NMDA-induced NK1R internalization (protein kinase A (PKA); listed as KT 5720): decreased
additional inhibition in presence of CTX GVIA [8]: did not produce any further inhibition
additional inhibition in presence of CTX MVIIC [8]: did not produce any further inhibition

COc1cc(CNC(=O)CCCC/C=C/C(C)C)ccc1O [capsaicin]
NK1R internalization elicited by 0.3 μM capsaicin (TRPV1 channels [9]): 75%
NK1R internalization elicited by 1 μM capsaicin (TRPV1 channels [9]): maximal NK1R internalization
effect of substance P depletion on NMDA-induced substance P release (NMDA receptors [1]; C-fibers depleted by incubating slices with capsaicin): disappears
EC50 (TRPV1 channels [7]; read-out: EC50 to induce NK1R internalization, ref Marvizon et al., 2003a): 370 nM

C=C[C@@]1(C)CC(=O)[C@]2(O)[C@@]3(C)[C@@H](O)CCC(C)(C)[C@@H]3[C@H](O)[C@H](OC(C)=O)[C@@]2(C)O1 [forskolin]
NK1R internalization elicited (AC/PKA pathway): greater than NMDA+D-Ser

Nc1ncnc2c1nc(Br)n2[C@@H]1O[C@@H]2COP(=O)(O)O[C@H]2[C@H]1O [8-Br-cAMP, 8-Bromoadenosine-3′,5′-cyclic monophosphate]
NK1R internalization elicited (AC/PKA pathway): greater than NMDA+D-Ser, with 8-Br-cAMP producing the larger effect

Oc1cc2c(cc1O)CN(C(=S)NCCc1ccc(Cl)cc1)CCC2 [capsazepine]
effect on capsaicin-induced substance P release (TRPV1 antagonist) (TRPV1 channels [7]; ref Lao et al., 2003): blocked

CN(C)C[C@H]1CCn2c(c(C3=C(c4cn(C)c5ccccc45)C(=O)NC3=O)c3ccccc32)C1.Cl [Ro-32-0432, 3-[(8S)-8-[(Dimethylamino)methyl]-6,7,8,9-tetrahydropyrido[1,2-a]indol-10-yl]-4-(1-methyl-1H-indol-3-yl)-1H-pyrrole-2,5-dione hydrochloride]
effect on inhibition by 10 nM DAMGO (protein kinase C (PKC); [11]): did not increase its inhibition by DAMGO
effect on NMDA-induced substance P release (protein kinase C (PKC); [12]): did not affect NMDA-induced substance P release

B1: BDNF: brain-derived neurotrophic factor (protein, UniProt P23560 19-247, looked up)
Neurotrophic factor BDNF …: APMKEANIRGQGGLAYPGVRTHGTLESVNGPKAGSRGLTSLADTFEHVIEELLDEDQKVRPNEENNKDADLYTSRVMLSSQVPLEPPLLFLLEEYKNYLDAANMSMRVRRHSDPARRGELSVCDSISEWVTAADKKTAVDMSGGTVTVLEKVPVSKGQLKQYFYETKCNPMGYTKEGCRGIDKRHWNSQCRTTQSYVRALTMDSKKRIGWRFIRIDTSCVCTLTIKRGR
lamina 1 neurons with NK1R internalization in example image [3]: 5 out of 7 cells
effect of BDNF on NMDA-induced NK1R internalization ([3]; intrathecal BDNF 0.3 μg, 4 h before NMDA + D-Ser, p<0.01 vs NMDA): significant increase in NMDA-induced NK1R internalization
effect on NMDA-induced NK1R internalization [10]: increased NMDA-induced NK1R internalization
